Measured values reported in US7696165B2 (Albany Molecular Research, Inc., priority 2006, dated 2010).
In brackets after ≈: the same amount, converted by molar mass.

System: concanavalin A (ConA)-stimulated murine splenocytes
Assay: Concanavalin A-stimulated murine splenocyte assay ([3H]thymidine incorporation)
Type: cell-based, mouse (BALB/c)
Protocol: Male BALB/c mice, at 5 to 7 weeks of age, were sacrificed by CO2 inhalation. Spleens were removed and dissociated by pushing through a nylon cell strainer. The splenocytes were washed in RPMI 1640/5% fetal calf serum (FCS) and pelleted at 400×g. Red blood cells were then lysed by resuspending the cell pellet in ACK lysis buffer (150 mM NH4Cl, 1 mM KHCO3, 0.1 mM EDTA, 3 mL per spleen) for 10 min at room temperature. After pelleting at 400×g, the cells were washed by resuspending in RPMI 1640/5% FCS and repelleting. The cell pellet was resuspended in RPMI 1640/5% FCS and again passed through a cell strainer to remove cell aggregates. The cells were then counted and adjusted to 2×10^6 cells/ml in RPMI 1640/10% FCS/50 μM 2-mercaptoethanol. Cell viability was assessed by Trypan blue staining. […] The cells were cultured in a 37° C. CO2 incubator for 2 days and then pulsed with 1 μCi of [^3H]thymidine for 6 hours. Cells were harvested onto filtermats with a TomTec 96 well plate harvester and lysed with H2O. The filtermat and scintillation fluid were sealed in a plastic sleeve. [^3H]thymidine incorporation was measured with a Wallac Trilux plate counter. Initial screens were done at a fixed value of 100 ng/ml test compound. IC50s were calculated from 7 point concentration-response curves using graphPad software.

Structure (SMILES)	IC50 [µg/mL]	immunosuppressive potency compared to cyclosporin A (FIG. 1, ConA stimulated murine splenocyte assay)
C#CC#CC[C@@H](C)[C@@H](O)[C@H]1C(=O)N[C@@H](CC)C(=O)N(C)CC(=O)N(C)[C@@H](CC(C)C)C(=O)N[C@@H](C(C)C)C(=O)N(C)[C@@H](CC(C)C)C(=O)N[C@@H](C)C(=O)N[C@H](C)C(=O)N(C)[C@@H](CC(C)C)C(=O)N(C)[C@@H](CC(C)C)C(=O)N(C)[C@@H](C(C)C)C(=O)N1C [Example 25, cyclosporine diyne]	0.012 (≈ 0.00991 µM)	two times more potent over cyclosporin A
C/C=C\C#CC[C@@H](C)[C@@H](O)[C@H]1C(=O)N[C@@H](CC)C(=O)N(C)CC(=O)N(C)[C@@H](CC(C)C)C(=O)N[C@@H](C(C)C)C(=O)N(C)[C@@H](CC(C)C)C(=O)N[C@@H](C)C(=O)N[C@H](C)C(=O)N(C)[C@@H](CC(C)C)C(=O)N(C)[C@@H](CC(C)C)C(=O)N(C)[C@@H](C(C)C)C(=O)N1C [Example 14, cis-cyclosporin yne-ene]	0.032 (≈ 0.0261 µM)	–
C/C=C\C#CC#CC[C@@H](C)[C@@H](O)[C@H]1C(=O)N[C@@H](CC)C(=O)N(C)CC(=O)N(C)[C@@H](CC(C)C)C(=O)N[C@@H](C(C)C)C(=O)N(C)[C@@H](CC(C)C)C(=O)N[C@@H](C)C(=O)N[C@H](C)C(=O)N(C)[C@@H](CC(C)C)C(=O)N(C)[C@@H](CC(C)C)C(=O)N(C)[C@@H](C(C)C)C(=O)N1C [Example 35, cis-cyclosporin yne-yne-ene]	0.077 (≈ 0.0616 µM)	–
CC#CC#CC[C@@H](C)[C@@H](O)[C@H]1C(=O)N[C@@H](CC)C(=O)N(C)CC(=O)N(C)[C@@H](CC(C)C)C(=O)N[C@@H](C(C)C)C(=O)N(C)[C@@H](CC(C)C)C(=O)N[C@@H](C)C(=O)N[C@H](C)C(=O)N(C)[C@@H](CC(C)C)C(=O)N(C)[C@@H](CC(C)C)C(=O)N(C)[C@@H](C(C)C)C(=O)N1C [Example 27, cyclosporin diyne]	0.012 (≈ 0.0098 µM)	–
